Test results as given in patent US20250215016A1, “ISOXAZOLE-HETEROCYCLIC DERIVATIVE, PHARMACEUTICAL COMPOSITION AND USE” (SHANGHAI SIMR BIOTECHNOLOGY CO., LTD, priority 2022, published 2025).
Values after ≈ are worked out from the molar mass of the structure shown.

Columns and labels:
[1] = Thermodynamic solubility in simulated intestinal fluid (FaSSIF); format: physicochemical; settings: simulated intestinal fluid (FaSSIF), thermodynamic from solid, 37° C., 1000 rpm
Description: 50 mM of phosphate buffer, pH=7.4:0.39 g of NaH2PO4·2H2O, 1.4025 g of Na2HPO4 were weighed, placed into an Erlenmeyer flask, dissolved with the addition of 240 ml of water, homogenously mixed, adjusted to pH 7.4 with 10 M NaOH solution, transferred into a 250 ml volumetric flask and diluted with water to the scale.
Simulated intestinal fluid FaSSIF: 54.76 mg of FaSSIF-V2 (Biorelevant, batch. V2FAS-0619-A, lot. V2FAS01) was weighed, and added to 15 ml of buffer, and after dissolution, the solution was made up to 30 ml and left to stand at room temperature for 1 hour for use.
Waters e2695 HPLC high performance liquid chromatography, Mettler XSE105 analytical balance.
Stock solution containing 10 mM of each test compound was formulated using DMSO, diluted into […] standard curve solution using diluent (ACN:PB buffer with a volume ratio of 50:50), and tested by HPLC to obtain a standard curve of concentration vs peak area of each test compound.
Thermodynamic solubility in simulated intestinal fluid (TS in FaSSIF). About 0.3 mg of each sample (test compound) was weighed, added into 1.5 mL of FaSSIF solution, two samples in parallel, shaken at 1000 rpm and 37° C. for 4 hours, and filtered, 1 mL of primary filtrate was discarded, then 400 μL of subsequent filtrate was taken, and tested by using a high performance liquid chromatograph (UV).

[2] = target: human α5β3γ2 receptor (α5-GABAA receptor) (Homo sapiens (Human), UniProt P18507+P31644); experiment: Radioligand (3H-flunitrazepam) competition binding assay, BZD site; settings: 3H-flunitrazepam 1 nM; HEK293 membranes expressing human α5β3γ2
How it was run: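 Membranes from HEK293 cells stably expressing human α2β3γ2 or α5β3γ2 (5 μg protein/well) incubated 1 h at room temperature with 1 nM ^3H-flunitrazepam and 8-point 4-fold compound dilutions; nonspecific binding defined with 10 μM flumazenil. Filter-bound radioactivity counted; Ki derived from fitted IC50.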

[3] = target: α5-GABAA receptor (Homo sapiens (Human), UniProt P18507+P31644); experiment: Whole-cell patch clamp electrophysiology, inverse regulation activity in α5β3γ2-HEK293 cells; format: cell-based; settings: compound 100 nM; GABA 0.05-0.06 μM (about EC7-8); clamped at −60 mV; read-out: Inverse regulation efficiency to α5-GABAA receptor
How it was run: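 HEK293 cells expressing α5β3γ2 recorded whole-cell at −60 mV holding potential, GABA 0.05-0.06 μM (about EC7-8) applied, then compound at 100 nM final with GABA. pH 7.4 extracellular, CsCl-based pipette solution. Inverse regulation efficiency = (Itreatment−Igaba)/(Igaba−Iprebaseline)×100%.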

[4] = target: α5-GABAA receptor (Homo sapiens (Human), UniProt P31644); settings: highest concentration of L-655,708; GABA 1 μM; cited from earlier work
[5] = target: human α2β3γ2 receptor (α2-GABAA receptor) (Homo sapiens (Human), UniProt P18507+P47869); experiment: Radioligand (3H-flunitrazepam) competition binding assay, BZD site; α2 vs α5 binding selectivity; settings: ratio of Ki at α2β3γ2 to Ki at α5β3γ2
Excerpt: α, β and γ subunits are essential for the formation of a complete functional GABAA receptor. In this example, HEK293 cell strains stably expressing human α5-GABAA receptor (comprising α5β3γ2 subunit) and α2-GABAA receptor (comprising α2β3γ2 subunit) were constructed and screened, respectively, by liposome transfection method (Felgner, P. L., et al., Proceedings of the National Academy of Sciences, 1987, 84:7413-7417). The specific subunit protein sequences are as follows: α5 subunit (protein sequence can be found in GenBank accession number: NM_000810.3); α2 subunit (protein sequence can be found in GenBank accession number: NM_000807.4); β3 subunit (protein sequence can be found in GenBank accession number: NM_000814.5); γ2 subunit (protein sequence can be found in GenBank accession number: NM_000816.3).
The above cell lines were subcultured. Amplification of α5β3γ2-HEK293 and α2β3γ2-HEK293 cells was used to test the affinity of the compounds to benzodiazepine site (BZD) of the GABAA receptor. During the passage of α5β3γ2-HEK293 cells, some of the suspended cells were spread on a glass slide pretreated with Poly-D-Lysine for electrophysiological testing.
Flunitrazepam is a non-specific reagent that binds to the BZD site efficiently. The affinity of the compounds to the BZD sites of the human α5β3γ2 and α2β3γ2 receptors can be determined by competing the compound with ^3H-flunitrazepam (isotope ^3H-labeled flunitrazepam) for binding to these two receptors.
Membrane preparation: HEK293 cells stably expressing human α5β3γ2 receptor or α2β3γ2 receptor were collected, suspended in 50 mM Tris-HCl buffer (pH=7.4), homogenized on ice by a homogenizer for 20 seconds 10 times, and centrifuged at 4° C., 1000 g for 10 min. The supernatant was collected, and the above steps were repeated. The supernatant was centrifuged (33800 g; centrifuge purchased from Thermo, rotor model: A27-8×50) at 4° C. for 60 min, and the precipitate was resuspended in Tris buffer (50 mM Tris-HCl, 10 mM MgCl2, 0.5 mM EDTA, 10% glycerol). The precipitate was the cell membrane. Protein content was determined by BCA (Bicinchoninic Acid) method (BCA kit from Pierce (Annoron)). The cell membrane was prepared into 1 ml aliquot and stored at −80° C.
Radioligand competition binding assay: the assay was carried out in a 200 μL system (96-well plate from Agilent) with 100 μL of cell membrane. The concentration of ^3H-flunitazepam (from PerkinElmer, lot: NET567250 UC) was 1 nM and the concentration of test compound was in the range 1×10^−5-10^−6 M. Flumazenil (from Tocris; lot: 1318) was used as a control. 1 μL of 2 mM flumazenil (final concentration 10 μM) was added to the Low signal control well (Low control, LC) and 1 μL of DMSO (from Sigma aldrich, lot: 472301) was added to the High signal control well (High control, HC). The final target membrane protein concentration was 5 μg/well. All test compound sample stocks were 10 mM DMSO solutions. The working concentration of the samples is to dilute all samples with DMSO to 0.2 mM, and then perform 4-fold continuous gradient dilution for a total of 8 concentration gradients. The 96-well plate was sealed with a plate sealing membrane and then incubated on a shaker at room temperature for 1 hour. Meanwhile, GF/C filter plate was soaked with a plate soaking buffer (0.3% PEI, polyethyleneimine, purchased from Sigma aldrich, model: P314, stored at 4° C.) for at least 0.5 hours. After completion of binding incubation, the cells were collected with a cell collector onto the GF/C filter plate and washed four times with a plate washing buffer (50 mM Tris-HCl, pH 7.4, stored at 4° C.). […]

Structure (SMILES)	solubility thermodynamic at 4 h [1] [µg/mL]	Ki [2] [nM]	inhibition at 0.1 µM [3] [%]	Inhibition of GABA-induced current [4] [%]	Selectivity α2 ki/α5 ki [5] [folds]
Cc1onc(-c2ccc(F)cc2)c1COc1ccc(-c2nnc3n2CCN(S(C)(=O)=O)C3)cn1 [Compound 31, 3-(4-fluorophenyl)-5-methyl-4-(((5-(7-(methylsulfonyl)-5,6,7,8-tetrahydro-[1,2,4]triazolo[4,3-a]pyrazin-3-yl)pyridin-2-yl)oxy)methyl)isoxazole]	32.9 (≈ 67.8 µM)				
CC(=O)N1CCn2c(nnc2-c2ccc(OCc3c(-c4ccc(F)cc4)noc3C)nc2)C1 [Compound 30, 1-(3-(6-((3-(4-fluorophenyl)-5-methylisoxazol-4-yl)methoxy)pyridin-3-yl)-5,6-dihydro-[1,2,4]triazolo[4,3-a]pyrazin-7(8H)-yl)ethan-1-one]	191 (≈ 426 µM)	9.86	41		
Cc1noc(-c2ccc(OCc3c(-c4ccccc4)noc3C)nc2)n1 [WO2009071476, Example 245, reference compound]	0.9 (≈ 2.58 µM)				
CCOC(=O)c1ncn2c1[C@@H]1CCCN1C(=O)c1cc(OC)ccc1-2 [L-655,708]				15	
Cc1onc(-c2ccc(F)cc2)c1COc1ccc(-c2nnc3n2CCCOC3)nn1 [Compound 21, 3-(6-((3-(4-fluorophenyl)-5-methylisoxazol-4-yl)methoxy)pyridazin-3-yl)-6,7-dihydro-5H,9H-[1,2,4]triazolo[3,4-c][1,4]oxazepane]		0.91	46		51
Cc1onc(-c2ccc(F)cc2)c1COc1ccc(N2CCn3ccnc3C2)nn1 [Compound 35, 4-(((6-(5,6-dihydroimidazo [1,2-a]pyrazin-7(8H)-yl)pyridazin-3-yl)oxy)methyl)-3-(4-fluorophenyl)-5-methylisoxazole]		1.44	49		35.8
